Our source for the IC50 values is ChEMBL document CHEMBL1155087, “Discovery of novel hydroxy-thiazoles as HIF-alpha prolyl hydroxylase inhibitors: SAR, synthesis, and modeling evaluation” (Bioorg Med Chem Lett, 2008).

The assay concerns the target Egl nine homolog 1 (Homo sapiens, UniProt Q9GZT9). The assay is described as follows: Inhibition of human PHD2 assessed as hydroxylation of Pro564 in human HIF-1alpha by TR-FRET assay. Background: TR-FRET usually uses a lanthanide donor and a delayed reading to cut background.

A value given as a limit tells only on which side of the number the result lay.

Sequence of Egl nine homolog 1 (Q9GZT9 whole entry): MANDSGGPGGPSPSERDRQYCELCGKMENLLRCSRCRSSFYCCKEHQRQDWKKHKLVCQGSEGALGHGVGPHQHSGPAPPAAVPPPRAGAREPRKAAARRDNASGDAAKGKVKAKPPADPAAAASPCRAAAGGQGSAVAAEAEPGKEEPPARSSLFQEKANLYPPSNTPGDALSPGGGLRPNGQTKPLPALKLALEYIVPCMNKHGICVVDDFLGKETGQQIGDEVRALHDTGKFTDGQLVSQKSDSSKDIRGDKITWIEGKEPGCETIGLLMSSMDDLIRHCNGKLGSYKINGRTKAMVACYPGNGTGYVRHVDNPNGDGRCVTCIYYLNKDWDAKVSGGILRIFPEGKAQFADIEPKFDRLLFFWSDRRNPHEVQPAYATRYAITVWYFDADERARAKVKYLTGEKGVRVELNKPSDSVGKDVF

On to `CCOC(=O)Cc1csc(NC(=O)CS(=O)(=O)c2ccccc2)n1`, for which the IC50 (usually the concentration that inhibits the measured activity by half) was over 40 µM.
The same measure for `CCOC(=O)Cc1cs/c(=N/C(=O)CS(=O)(=O)c2ccccc2)n1O`: over 40 µM.
Take `CC(C)(C(=O)O)c1cs/c(=N/C(=O)CS(=O)(=O)c2ccccc2)n1O`: the IC50 is over 40 µM.
The value for `O=C(O)Cc1cs/c(=N/C(=O)CCc2ccccc2)n1O` was over 40 µM.
On to `O=C(O)Cc1csc(NC(=O)CS(=O)(=O)c2ccccc2)n1`, for which the IC50 is over 40 µM.
